Reference: PMC11091220, “Metabolism-driven in vitro/in vivo disconnect of an oral ERɑ VHL-PROTAC” (Communications Biology, 2024)
Several values for one entry are separate records, joined by “and”; a condition that tells them apart may be missing. Equal entries are not always repeated. Where two headings read alike, the source gives them in different places.

Legend:
[1] = Total plasma exposure of AZ’6421 and metabolite 8 in rat; type: in vivo; details: for Total plasma: rat, individual animals, analyte = label
Experimental: (§1) Fig. 8 Evidence of ER agonism of AZ’6421 and compound 8 in vitro and in vivo. a 100 nM compound or 10 nM estradiol (E2) were incubated with Ishikawa cells for 48 h and lysates measured for PR expression by western blot. b Normalised rat uterine weight shown as % change from respective vehicle control after 4 days dosing. c Representative H&E stained images taken from sections of uterine horn after 4 days of dosing. d Total plasma exposure of AZ’6421 and its metabolite 8 following dosing of 100 mg/kg BID or 30 mg/kg BID AZ’6421. Plasma samples were taken 4 hr after the 4th dose, at the same time as the uterus was weighed and sectioned for H&E staining.
Each plasma sample ([…]) was prepared using an appropriate dilution factor, and compared against an 11-point standard calibration curve (1-10000 nM) prepared in DMSO and spiked into blank plasma. Acetonitrile ([…]) was added with the internal standard, followed by centrifugation at 3000 rpm for 10 minutes. The supernatant ([…]) was then diluted in […] acetonitrile:water (75:25) and analyzed via UPLC-MS/MS.

[2] = system: PR expression; assay: ER agonism: PR expression in Ishikawa cells by western blot; type: cell-based; details: for PR expression (% vs 10 nM E2): 100 nM compound, individual replicates; for PR expression in the Ishikawa endometrial cell line: 100 nM, 48 h
Experimental: as §1
Cells were seeded into 12-well tissue culture-treated plates at 0.5 x 10^6 cells/well in phenol red-free RPMI containing 5% (v/v) charcoal-stripped FBS (F6765, Sigma) and left to adhere overnight. In experiments to detect agonism or for SILAC experiments, FBS was double stripped using activated charcoal. Cells were treated with compound or 0.1% DMSO vehicle control for the times indicated prior to being lysed in Pierce RIPA buffer (Thermo Scientific), supplemented with protease and phosphatase inhibitors. Expression levels of proteins were determined by standard western blotting techniques (BioRad 4%-12% Bis-Tris gels). Antibodies were diluted in 5% milk-PBS-Tween and protein levels were detected using Pierce WestDura chemiluminescent reagents followed by visualisation and quantification on a Syngene ChemiGenius Imager. Where blots were quantified, protein levels were normalised to beta-actin or vinculin control and expressed as % of vehicle control.

[3] = Plasma protein binding (RED device), mouse plasma; type: in vitro ADME; details: for Mouse fup: fraction unbound in plasma; for Mouse fup, Free: fraction free
Experimental: Plasma protein binding was completed using a RED device. The test compound was prepared to 1 mM in 100% DMSO and further diluted in plasma to achieve a final compound concentration of 5 μM in the incubation. Phosphate buffered solution pH 7.4 (500 μL) was added to the receiver chamber of the RED device and spiked plasma (300 μL) was added to the donor chamber. The plate was covered with a gas-permeable lid and incubated for 18 h at 37 °C with 5% CO2 on an orbital shaker at 300 rpm. At the end of incubation, 50 μL of post-dialysis sample from the donor and receiver wells were aliquot into separate wells and matrix-matched with 50 μL of phosphate buffer solution pH 7.4 or blank plasma, respectively. The samples were subsequently quenched separately in 400 μL of ice-cold 100% acetonitrile. Quenched samples were shaken at 1000 rpm for 10 min and centrifuged for 30 min at 4000 rpm to pellet precipitated protein. The supernatant fraction was further diluted 1:1 with deionised water for analysis by LC MS/MS[17].

[4] = molecular target: T1, ERα (Homo sapiens, UniProt P03372, D538G); assay: CTC174 ex vivo studies, ERα by western blot; type: cell-based; details: for ERα % of DMSO control: CTC174 ex vivo; for remaining activity at 1 µM: read-out: ERα levels, % of control
T1 construct: from tissue; host or cells: CTC174 PDX tumours grown in female NSG mice; for the ex vivo work, single cells disaggregated from these tumours
T1 sequence (P03372 1-595 D538G): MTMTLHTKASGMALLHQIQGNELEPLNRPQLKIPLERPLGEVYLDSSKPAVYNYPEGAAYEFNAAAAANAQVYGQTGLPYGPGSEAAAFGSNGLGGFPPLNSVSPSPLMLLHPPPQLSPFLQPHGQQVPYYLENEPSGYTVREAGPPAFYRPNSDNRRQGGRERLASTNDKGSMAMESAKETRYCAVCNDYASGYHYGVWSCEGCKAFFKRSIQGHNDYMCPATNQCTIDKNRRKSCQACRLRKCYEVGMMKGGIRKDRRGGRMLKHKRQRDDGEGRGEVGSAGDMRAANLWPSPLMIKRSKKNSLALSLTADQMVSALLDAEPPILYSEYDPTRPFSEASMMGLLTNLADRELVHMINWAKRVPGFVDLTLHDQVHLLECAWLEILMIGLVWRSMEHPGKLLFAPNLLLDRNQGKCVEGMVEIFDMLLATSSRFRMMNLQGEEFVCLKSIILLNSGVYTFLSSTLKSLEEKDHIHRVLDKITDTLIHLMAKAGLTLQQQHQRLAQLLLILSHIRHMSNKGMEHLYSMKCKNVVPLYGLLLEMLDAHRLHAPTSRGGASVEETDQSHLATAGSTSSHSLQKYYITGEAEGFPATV
Experimental: CTC174 tumours were collected from donor mice, all fat, mouse tissue and necrotic areas removed and the resultant tumour placed in ice cold PBS and kept on ice. Using forceps, the tumour was then minced into small pieces (1-2 mm). Once minced, the tissue was colleced, placed into a gentlMACS C tube with 4.7 mL DMEM/F12 and enzymes H, R and A (Miltenyi Tumour Dissociation Kit), and run on the gentleMACS Octo Dissociator (Program 37C_h_TDK_2). After dissociation, the cell suspension was passed through a […] filter, red blood cell lysis performed using […] lysis buffer, and the resultant suspension centrifuged, resuspended in RPMI (containing 10% charcoal-stripped FCS) and 1x10^6 cell added to each well of a 6 well plate. DMSO control, AZ’3372 or AZ’6421 were added to well at a range of concentrations, left to incubate for 24 hours (37 °C, 5% CO2) and then samples prepared for western blot and ERα levels determined as described above.

[5] = AZ'6421 dosed 30 mg/kg BID, 30 mg/kg
[6] = AZ'6421 dosed 100 mg/kg BID, 100 mg/kg

Cc1ncsc1-c1ccc(CNC(=O)[C@@H]2C[C@@H](O)CN2C(=O)[C@@H](NC(=O)COCCCOCCCOc2cc(F)c([C@@H]3c4[nH]c5ccccc5c4C[C@@H](C)N3CC(C)(C)F)c(F)c2)C(C)(C)C)cc1 [Compound 5]
Total plasma [1, 5]: 0.1461 µM and 0.4943 µM and 0.0995 µM
Total plasma [1, 6]: 1.2846 µM and 2.0194 µM and 0.7522 µM and 0.1020 µM and 0.0689 µM
PR expression (% vs 10 nM E2) ([2]; listed as AZ'6421): 0.39% and 0.32%
PR expression in the Ishikawa endometrial cell line [2]: failed to induce PR expression
free in mouse plasma [3]: 0.02%
Mouse fup [3]: 0.0002 (1)
Mouse fup, Free ([3]; mouse plasma): 0.0002
ERα % of DMSO control ([4]; 1 nM, 24 hours): 20.3%
ERα % of DMSO control ([4]; 10 nM, 24 hours): 12.0%
ERα % of DMSO control ([4]; 30 nM, 24 hours): 4.1%
ERα % of DMSO control ([4]; 100 nM, 24 hours): 4.2%
ERα % of DMSO control ([4]; 300 nM, 24 hours): 3.9%
ERα % of DMSO control ([4]; 1000 nM, 24 hours): 3.6%
ERα degradation ([4]; CTC174 cells ex vivo, 24 hours, 10 nM and above): approximately 90%
remaining activity at 1 µM [4]: < 1%

C[C@@H]1Cc2c([nH]c3ccccc23)[C@@H](c2c(F)cc(OCCC(=O)O)cc2F)N1CC(C)(C)F [Compound 8]
level in rat plasma ([1]; after dosing AZ’6421): found at sizable levels in rat plasma
Total plasma [1, 5]: 1.0069 µM and 2.5325 µM and 3.6803 µM and 2.8962 µM and 0.8884 µM
Total plasma [1, 6]: 7.8737 µM and 9.6410 µM and 6.9833 µM and 3.4205 µM and 4.6683 µM
PR expression (% vs 10 nM E2) [2]: 4.18% and 6.31%
PR expression in the Ishikawa endometrial cell line [2]: induced PR expression to a similar extent as AZD9496
free in mouse plasma [3]: 0.5%
Mouse fup [3]: 0.005 (1)
difference in the free levels vs AZ’6421 ([3]; mouse plasma): 25 fold
Mouse fup, Free ([3]; mouse plasma): 0.005
remaining activity at 1 µM ([4]; 1000 nM, CTC174 cells ex vivo (Fig. 6f)): 42%
